Read-outs that look alike come from different tables or passages of the source.
Columns and labels:
[1] = tested on: acute myeloid leukemia cell line U937; assay: Cancer cell proliferation inhibitory activity evaluation 2 (CCK-8), U937; type: cell-based; details: Homo sapiens, read-out: Cancer cell proliferation inhibitory activity U937
Procedure: (§1) In order to identify whether the compounds have anticancer activity, the acute myeloid leukemia cell line U937, the acute lymphoblastic leukemia cell line Jurkat, the gastric cancer cell lines AGS, […], and the human lung cancer cell line A549 were used. The cell line was cultured using RPMI-1640 medium (U937, Jurkat, AGS, A549) or DMEM (Hs746T) medium containing 10% fetal bovine serum. Welgene products were used as the medium, and hyclone products were used for fetal bovine serum, and 1% of antibiotics for cell culture from Gibco were used as the culture medium.

[2] = tested on: acute lymphoblastic leukemia cell line Jurkat; assay: Cancer cell proliferation inhibitory activity evaluation 2 (CCK-8), Jurkat; type: cell-based; details: Homo sapiens
Procedure: as §1

[3] = tested on: gastric cancer cell line AGS; assay: Cancer cell proliferation inhibitory activity evaluation 2 (CCK-8), AGS; type: cell-based; details: Homo sapiens, read-out: Cancer cell proliferation inhibitory activity AGS
Procedure: as §1

[4] = tested on: gastric cancer cell line Hs746T; assay: Cancer cell proliferation inhibitory activity evaluation 2 (CCK-8), Hs746T; type: cell-based; details: Homo sapiens
Procedure: as §1

[5] = tested on: human lung cancer cell line A549; assay: Cancer cell proliferation inhibitory activity evaluation 2 (CCK-8), A549; type: cell-based
Procedure: as §1

[6] = target: MLK3 (Homo sapiens (Human), UniProt Q16584); assay: Evaluation of inhibitory activity of enzyme units, MLK3 ([γ-33P]-ATP filter assay); details: read-out: IC50(nM) MLK3
[7] = target: MLK1 (Homo sapiens (Human), UniProt P80192); assay: Evaluation of inhibitory activity of enzyme units, MLK1 ([γ-33P]-ATP filter assay); type: biochemical
[8] = 72 h, read-out: Cancer cell proliferation inhibitory activity Jurkat
[9] = 72 h, read-out: Cancer cell proliferation inhibitory activity Hs746T
[10] = A549, 72 h, read-out: Cancer cell proliferation inhibitory activity A549
[11] = U-937, 10 μM, 72 hours, CCK-8 (Table 3)
[12] = 10 μM, 72 hours, CCK-8, read-out: Cancer cell proliferation inhibitory activity Jurkat
[13] = 10 μM, 72 hours, CCK-8, read-out: Cancer cell proliferation inhibitory activity Hs746T
[14] = A549, 10 μM, 72 hours, CCK-8, read-out: Cancer cell proliferation inhibitory activity A549

Sequence of MLK3 (Q16584 whole entry, looked up): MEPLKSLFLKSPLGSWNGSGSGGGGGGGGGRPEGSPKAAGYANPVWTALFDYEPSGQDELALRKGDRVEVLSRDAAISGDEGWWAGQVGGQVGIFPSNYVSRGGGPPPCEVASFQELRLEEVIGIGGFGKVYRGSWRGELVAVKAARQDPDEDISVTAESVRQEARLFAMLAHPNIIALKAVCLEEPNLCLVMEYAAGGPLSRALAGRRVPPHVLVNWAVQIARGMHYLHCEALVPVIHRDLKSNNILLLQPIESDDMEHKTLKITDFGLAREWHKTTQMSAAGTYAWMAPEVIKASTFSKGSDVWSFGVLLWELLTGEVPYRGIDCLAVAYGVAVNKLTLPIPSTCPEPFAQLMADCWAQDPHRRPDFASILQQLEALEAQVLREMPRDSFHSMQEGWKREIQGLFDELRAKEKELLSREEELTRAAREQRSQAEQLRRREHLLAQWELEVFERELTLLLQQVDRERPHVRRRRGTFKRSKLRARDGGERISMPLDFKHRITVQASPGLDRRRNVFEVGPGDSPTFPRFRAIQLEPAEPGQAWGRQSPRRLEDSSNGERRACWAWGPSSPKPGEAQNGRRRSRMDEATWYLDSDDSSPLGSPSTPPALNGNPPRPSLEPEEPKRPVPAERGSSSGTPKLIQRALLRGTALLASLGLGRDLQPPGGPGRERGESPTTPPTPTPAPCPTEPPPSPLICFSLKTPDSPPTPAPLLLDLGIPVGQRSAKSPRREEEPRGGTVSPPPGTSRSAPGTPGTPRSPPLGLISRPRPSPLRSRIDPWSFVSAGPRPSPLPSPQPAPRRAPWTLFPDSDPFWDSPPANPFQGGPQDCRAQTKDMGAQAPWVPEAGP
Sequence of MLK1 (P80192 whole entry, looked up): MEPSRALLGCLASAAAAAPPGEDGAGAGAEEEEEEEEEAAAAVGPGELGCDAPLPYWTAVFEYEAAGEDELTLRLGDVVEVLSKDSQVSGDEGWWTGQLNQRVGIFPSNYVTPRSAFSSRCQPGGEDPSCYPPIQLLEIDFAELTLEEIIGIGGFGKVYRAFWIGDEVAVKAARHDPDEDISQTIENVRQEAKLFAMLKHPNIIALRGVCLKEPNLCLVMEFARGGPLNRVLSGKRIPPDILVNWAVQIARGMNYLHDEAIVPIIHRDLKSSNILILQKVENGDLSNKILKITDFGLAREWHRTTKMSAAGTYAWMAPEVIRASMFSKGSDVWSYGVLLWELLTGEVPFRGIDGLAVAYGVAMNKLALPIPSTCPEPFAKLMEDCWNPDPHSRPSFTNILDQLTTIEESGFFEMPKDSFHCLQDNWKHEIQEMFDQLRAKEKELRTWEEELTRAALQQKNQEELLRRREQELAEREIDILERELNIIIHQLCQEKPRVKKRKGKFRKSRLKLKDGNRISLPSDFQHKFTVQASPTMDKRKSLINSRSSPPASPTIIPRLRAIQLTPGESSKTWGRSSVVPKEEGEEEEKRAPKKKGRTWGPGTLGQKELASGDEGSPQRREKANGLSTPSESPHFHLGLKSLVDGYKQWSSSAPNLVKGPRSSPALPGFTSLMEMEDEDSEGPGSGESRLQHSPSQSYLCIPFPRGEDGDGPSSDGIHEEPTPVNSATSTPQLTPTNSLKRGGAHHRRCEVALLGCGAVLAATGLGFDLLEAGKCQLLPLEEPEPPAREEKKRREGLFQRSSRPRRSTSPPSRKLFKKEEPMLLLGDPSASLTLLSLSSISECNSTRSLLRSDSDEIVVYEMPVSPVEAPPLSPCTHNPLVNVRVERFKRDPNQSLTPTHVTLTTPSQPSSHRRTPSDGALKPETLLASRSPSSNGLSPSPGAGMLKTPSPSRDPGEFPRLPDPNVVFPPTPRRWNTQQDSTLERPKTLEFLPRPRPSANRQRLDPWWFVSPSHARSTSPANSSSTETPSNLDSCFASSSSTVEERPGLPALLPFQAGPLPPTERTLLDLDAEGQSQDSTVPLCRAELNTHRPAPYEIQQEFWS

CCS(=O)(=O)N1CC[C@H](Nc2c(Br)cnc3[nH]c(-c4cc(C)n(-c5ccc(NS(C)(=O)=O)cc5C)c4C)nc23)C1 [Example 8, N-(4-(3-(6-bromo-7-(((S)-1-(ethylsulfonyl)pyrrolidine-3-yl)amino)-3H-imidazo[4,5-b]pyridine-2-yl)-2,5-dimethyl-1H-pyrrol-1-yl)-3-methylphenyl) methanesulfonamide]
inhibition at 10 µM ([1]; U-937, 72 h): > 50% | inhibition at 10 µM [2, 8]: > 50% | inhibition at 10 µM ([3]; 72 h): > 50% | inhibition at 10 µM [4, 9]: > 50% | inhibition at 10 µM [5, 10]: > 50% | IC50 [6]: 7 nM

CCS(=O)(=O)N1CC[C@H](Nc2c(Br)cnc3[nH]c(-c4cc(C)n(-c5cccc(NS(C)(=O)=O)c5C)c4C)nc23)C1 [Example 9, N-(3-(3-(6-bromo-7-(((S)-1-(ethylsulfonyl)pyrrolidine-3-yl)amino)-3H-imidazo[4,5-b]pyridine-2-yl)-2,5-dimethyl-1H-pyrrol-1-yl)-2-methylphenyl) methanesulfonamide]
inhibition at 10 µM ([1]; U-937, 72 h): > 50% | inhibition at 10 µM [2, 8]: > 50% | inhibition at 10 µM ([3]; 72 h): > 50% | inhibition at 10 µM [4, 9]: > 50% | inhibition at 10 µM [5, 10]: > 50% | IC50 [6]: 10 nM

CCS(=O)(=O)N1CC[C@H](Nc2c(Cl)cnc3[nH]c(-c4cc(C)n(-c5cc(NS(C)(=O)=O)ccc5C)c4C)nc23)C1 [Example 51, N-(3-(3-(6-chloro-7-(((S)-1-(ethylsulfonyl)pyrrolidine-3-yl)amino)-3H-imidazo[4,5-b]pyridine-2-yl)-2,5-dimethyl-1H-pyrrol-1-yl)-4-methylphenyl) methanesulfonamide]
IC50 [7]: 53 nM | inhibition at 10 µM [1, 11]: > 50% | inhibition at 10 µM [2, 12]: > 50% | inhibition at 10 µM [4, 13]: > 50% | inhibition at 10 µM [5, 14]: 10 to 50% | IC50 [6]: 330 nM

CCS(=O)(=O)N1CC[C@H](Nc2c(Cl)cnc3nc(-c4cc(C)n(-c5ccc(OCCN6CCOCC6)cc5)c4C)[nH]c23)C1 [Example 52, (S)-6-chloro-2-(2,5-dimethyl-1-(4-(2-morpholinoethoxy)phenyl)-1H-pyrrol-3-yl)-N-(1-(ethylsulfonyl)pyrrolidine-3-yl)-1H-imidazo[4,5-b]pyridine-7-amine]
IC50 [7]: 87 nM | inhibition at 10 µM [1, 11]: > 50% | inhibition at 10 µM [2, 12]: > 50% | inhibition at 10 µM [4, 13]: > 50% | inhibition at 10 µM [5, 14]: 10 to 50% | IC50 [6]: 324 nM

CCN(CC)CCNC(=O)c1cccc(-n2c(C)cc(-c3nc4ncc(Br)c(N[C@H]5CCN(S(=O)(=O)CC)C5)c4[nH]3)c2C)c1 [Example 56, (S)-3-(3-(6-bromo-7-((1-(ethylsulfonyl)pyrrolidine-3-yl)amino)-1H-imidazo[4,5-b]pyridine-2-yl)-2,5-dimethyl-1H-pyrrol-1-yl)-N-(2-(diethylamino)ethyl)benzamide]
inhibition at 10 µM [1, 11]: > 50% | inhibition at 10 µM [2, 12]: > 50% | inhibition at 10 µM ([3]; 10 μM, 72 hours, CCK-8): > 50% | inhibition at 10 µM [4, 13]: > 50% | inhibition at 10 µM [5, 14]: > 50% | IC50 [6]: 122 nM

CCN(CC)CCNC(=O)c1ccc(-n2c(C)cc(-c3nc4ncc(Br)c(N[C@H]5CCN(S(=O)(=O)CC)C5)c4[nH]3)c2C)cc1 [Example 57, (S)-4-(3-(6-bromo-7-((1-(ethylsulfonyl)pyrrolidine-3-yl)amino)-1H-imidazo[4,5-b]pyridine-2-yl)-2,5-dimethyl-1H-pyrrol-1-yl)-N-(2-(diethylamino)ethyl)benzamide]
inhibition at 10 µM ([1]; U-937, 72 h): > 50% | inhibition at 10 µM [2, 8]: > 50% | inhibition at 10 µM ([3]; 72 h): > 50% | inhibition at 10 µM [4, 9]: > 50% | inhibition at 10 µM [5, 10]: > 50% | IC50 [6]: 97 nM

CCS(=O)(=O)N1CC[C@H](Nc2c(Br)cnc3[nH]c(-c4cc(C)n(-c5ccc(C(=O)O)cc5)c4C)nc23)C1 [Example 59, (S)-4-(3-(6-bromo-7-((1-(ethylsulfonyl)pyrrolidine-3-yl)amino)-3H-imidazo[4,5-b]pyridine-2-yl)-2,5-dimethyl-1H-pyrrol-1-yl)benzoic acid]
inhibition at 10 µM ([1]; U-937, 72 h): 10 to 50% | inhibition at 10 µM [2, 8]: 10 to 50% | inhibition at 10 µM ([3]; 72 h): < 10% | inhibition at 10 µM [4, 9]: 10 to 50% | inhibition at 10 µM [5, 10]: < 10% | IC50 [6]: 19 nM

CCS(=O)(=O)N1CC[C@H](Nc2c(Br)cnc3[nH]c(-c4cc(C)n(-c5cccc(C(=O)NCN(C)C)c5)c4C)nc23)C1 [Example 60, (S)-3-(3-(6-bromo-7-((1-(ethylsulfonyl)pyrrolidine-3-yl)amino)-3H-imidazo[4,5-b]pyridine-2-yl)-2,5-dimethyl-1H-pyrrol-1-yl)-N-((dimethylamino)methyl)benzamide]
inhibition at 10 µM ([1]; U-937, 72 h): > 50% | inhibition at 10 µM [2, 8]: > 50% | inhibition at 10 µM ([3]; 72 h): > 50% | inhibition at 10 µM [4, 9]: > 50% | inhibition at 10 µM [5, 10]: > 50% | IC50 [6]: 27 nM

CCS(=O)(=O)N1CC[C@H](Nc2c(Br)cnc3[nH]c(-c4cc(C)n(-c5cccc(C(=O)N(C)CCN(C)C)c5)c4C)nc23)C1 [Example 61, (S)-3-(3-(6-bromo-7-((1-(ethylsulfonyl)pyrrolidine-3-yl)amino)-3H-imidazo[4,5-b]pyridine-2-yl)-2,5-dimethyl-1H-pyrrol-1-yl)-N-(2-(dimethylamino)ethyl)-N-methylbenzamide]
IC50 [7]: 19 nM | inhibition at 10 µM ([1]; U-937, 72 h): > 50% | inhibition at 10 µM [2, 8]: > 50% | inhibition at 10 µM ([3]; 72 h): > 50% | inhibition at 10 µM [4, 9]: > 50% | inhibition at 10 µM [5, 10]: > 50% | IC50 [6]: 30 nM

CCS(=O)(=O)N1CC[C@H](Nc2c(Br)cnc3nc(-c4cc(C)n(-c5cccc(NC(=O)CN(C)C)c5)c4C)[nH]c23)C1 [Example 64, (S)—N-(3-(3-(6-bromo-7-((1-(ethylsulfonyl)pyrrolidine-3-yl)amino)-1H-imidazo[4,5-b]pyridine-2-yl)-2,5-dimethyl-1H-pyrrol-1-yl)phenyl)-2-(dimethylamino) acetamide]
IC50 [7]: 34 nM | inhibition at 10 µM ([1]; U-937, 72 h): > 50% | inhibition at 10 µM [2, 8]: > 50% | inhibition at 10 µM ([3]; 72 h): > 50% | inhibition at 10 µM [4, 9]: > 50% | inhibition at 10 µM [5, 10]: > 50% | IC50 [6]: 14 nM

CCS(=O)(=O)N1CC[C@H](Nc2c(Br)cnc3nc(-c4cc(C)n(-c5cccc(NC(=O)CN6CCN(C)CC6)c5)c4C)[nH]c23)C1 [Example 65]
IC50 [7]: 42 nM | inhibition at 10 µM ([1]; U-937, 72 h): > 50% | inhibition at 10 µM [2, 8]: > 50% | inhibition at 10 µM ([3]; 72 h): > 50% | inhibition at 10 µM [4, 9]: > 50% | inhibition at 10 µM [5, 10]: < 10% | IC50 [6]: 26 nM

CCS(=O)(=O)N1CC[C@H](Nc2c(Br)cnc3nc(-c4cc(C)n(-c5cccc(NC(=O)CN6CCOCC6)c5)c4C)[nH]c23)C1 [Example 66, (S)—N-(3-(3-(6-bromo-7-((1-(ethylsulfonyl)pyrrolidine-3-yl)amino)-1H-imidazo[4,5-b]pyridine-2-yl)-2,5-dimethyl-1H-pyrrol-1-yl)phenyl)-2-morpholinoacetamide]
IC50 [7]: 22 nM | inhibition at 10 µM ([1]; U-937, 72 h): 10 to 50% | inhibition at 10 µM [2, 8]: > 50% | inhibition at 10 µM ([3]; 72 h): > 50% | inhibition at 10 µM [4, 9]: > 50% | inhibition at 10 µM [5, 10]: 10 to 50% | IC50 [6]: 17 nM

CCS(=O)(=O)N1CC[C@H](Nc2c(Br)cnc3nc(-c4cc(C)n(-c5ccc(C(=O)N6CCN(C)CC6)cc5)c4C)[nH]c23)C1 [Example 67, (S)-(4-(3-(6-bromo-7-((1-(ethylsulfonyl)pyrrolidine-3-yl)amino)-1H-imidazo[4,5-b]pyridine-2-yl)-2,5-dimethyl-1H-pyrrol-1-yl)phenyl) (4-methylpiperazine-1-yl) methanone]
IC50 [7]: 32 nM | inhibition at 10 µM ([1]; U-937, 72 h): > 50% | inhibition at 10 µM [2, 8]: > 50% | inhibition at 10 µM ([3]; 72 h): > 50% | inhibition at 10 µM [4, 9]: 10 to 50% | inhibition at 10 µM [5, 10]: 10 to 50% | IC50 [6]: 19 nM

CCS(=O)(=O)N1CC[C@H](Nc2c(Br)cnc3nc(-c4cc(C)n(-c5cccc(C(=O)N6CCN(C)CC6)c5)c4C)[nH]c23)C1 [Example 68]
IC50 [7]: 25 nM | inhibition at 10 µM ([1]; U-937, 72 h): > 50% | inhibition at 10 µM [2, 8]: > 50% | inhibition at 10 µM ([3]; 72 h): > 50% | inhibition at 10 µM [4, 9]: > 50% | inhibition at 10 µM [5, 10]: > 50% | IC50 [6]: 16 nM

CCS(=O)(=O)N1CC[C@H](Nc2c(Br)cnc3[nH]c(-c4cc(C)n(-c5cccc(C(=O)NCCN6CCOCC6)c5)c4C)nc23)C1 [Example 69, (S)-3-(3-(6-bromo-7-((1-(ethylsulfonyl)pyrrolidine-3-yl)amino)-3H-imidazo[4,5-b]pyridine-2-yl)-2,5-dimethyl-1H-pyrrol-1-yl)-N-(2-morpholinoethyl)benzamide]
IC50 [7]: 22 nM | inhibition at 10 µM ([1]; U-937, 72 h): > 50% | inhibition at 10 µM [2, 8]: > 50% | inhibition at 10 µM ([3]; 72 h): > 50% | inhibition at 10 µM [4, 9]: 10 to 50% | inhibition at 10 µM [5, 10]: 10 to 50% | IC50 [6]: 13 nM

CCS(=O)(=O)N1CC[C@H](Nc2c(Br)cnc3nc(-c4cc(C)n(-c5cc(NC(=O)CCN(C)C)ccc5C)c4C)[nH]c23)C1 [Example 80]
inhibition at 10 µM [1, 11]: > 50% | inhibition at 10 µM [2, 12]: > 50% | inhibition at 10 µM ([3]; 10 μM, 72 hours, CCK-8): > 50% | inhibition at 10 µM [4, 13]: > 50% | inhibition at 10 µM [5, 14]: > 50%

Source: patent US12545673B2, “Imidazopyridine derivative and pharmaceutical composition comprising same as active ingredient” (TSD LIFE SCIENCES CO., LTD., priority 2019, dated 2026)
